Assay results published in patent US6015820A, “4-Aryl-thio-pyridin-2(1H)-ones, medicines containing them and their uses in the treatment of illnesses linked to HIV” (priority 1995, dated 2000).
Where two headings read alike, the source gives them in different places.

Columns and labels:
Assay type in all cases: cell-based
[1] = cytotoxicity on non-infected cells (MTT test); conditions: human; Table 2; non-infected CEM-SS cells, MTT, 5 days
Method: In parallel experiments, the cytotoxicity of the molecules was measured on non-infected cells, after an incubation of 5 days in the presence of these molecules, by using a […] titration (MTT test) based on the ability of the mitochondrial dehydrogenases of the living cells to reduce 3-(4,5-dimethylthiazol-2-yl)-2,5-diphenyltetrazolium bromide in formazan (Mosmann et al. J. Immunol. Methods ([…]), 65, 55-63). The concentration cytotoxic at 50% (CC50) is the concentration at which the DO540 has been reduced to half and is calculated by using the program mentioned above.

HIV-1 LAI = experiment: anti-HIV-1 activity: replication of HIV-1 LAI on CEM-SS cells
Method: The CEM-SS and the HIV-1 resistant to Nevirapine (N119) carrying a point mutation at codon 181 of the IT, were supplied respectively by P. NARA and D. RICHMAN through the intermediary of the AIDS Research and Reference Reagent Program, Division of AIDS, NIAID, NIH (USA) (Catalogue references : No. 776 and No. 1392).
The virus production was measured by quantifying the activity of the inverse transcriptase associated with viral particles released into the culture supernatant. In short, cells were infected with 100 TCID50 for 30 minutes; after adsorption of the virus, unbound particles were removed by two washings and the cells were cultivated in the presence of different concentrations of the compounds tested for 5 days before determining the viral production. The concentration inhibiting 50% of the viral multiplication (IC50) came from the computer plot of the median effect of the dose effect results (Chou et al. Elsevier Science Publishers, Cambridge U.K. (1985), 19-28).

isolated virion HIV-1LAI = experiment: infectivity of the isolated virion after treatment with inhibitors (HT4LacZ cells)
Method: H9 cells chronically infected with HIV-1LAI (10^8 /ml) were cocultivated with MT4 cells (10^8 /ml) for 48 hours in an RMPI medium supplemented by 10% of calf foetal serum (CFS). The cells were then removed by centrifugation and then the supernatant liquid was filtered (0.45 μm) to remove residual cells and cell debris.
After having been incubated with the various inhibitors, the viral supernatants (200 μl) were deposited in the filtering part of a VectaSpin tube (WHATMAN) fitted with an ANAPORE membrane of porosity 0.02 μm. For 10 minutes they were subjected to centrifugation, the acceleration of which reached 6000 g at the filtering membrane. The viral residuums thereby obtained (10-15 μl ) were washed 3 times under the same conditions with 500 μl of RPMI then restored to their initial volumes with RPMI containing 10% of CFS.
The HT4LacZ-1 cells were kept in a DMEM medium (glucose 4.5 g/l) supplemented with 10% of calf foetal serum in the presence of Gentamycin (50 mg/l). These cells stemmed from Hela cells in which had been cloned, on the one hand the gene coding for the human CD4 so as to render them susceptible to infection by the HIV (Chesebro and Wehrly, 1988, J. Virol., 62, 3779-3788), and on the other hand the gene for β-Galactosidase which, placed under the dependent of the LTR of the HIV-1 served as a marker for the viral infection (Rocancourt et al. (1990) J. Virol. 1990 64-6, 2660-2688). When the virus infects such cells after its integration into the cellular genome, the production of the regulatory protein TAT activates the LTR of the HIV. The result is an activation of the gene of β-Galactosidase which leads to its production in the intracellular medium and more particularly in the nucleus. It is this protein that serves as a marker of the infection.
The evening of day 0, the HT4LacZ-1 cells were diluted at the rate of 75000 cells per ml of medium. 100 μl of this suspension was then distributed over a flat bottomed plate with 96 wells and was cultivated overnight at 37° C. (5% of CO2).
The morning of day 1, the supernatant liquid was removed by aspiration. Each well was then complemented with 200 μl of the viral supernatant dilutions to be tested. Each dilution was made in a DMEM medium (glucose 4.5 g/l) supplemented with 10% of CFS. The plates were then placed in an environment at 37° C. in the presence of 5% of CO2.
After 48 hours of culture, the supernatant liquid was aspirated, then each well was washed 3 times in PBS before being complemented with 200 μl of developing buffer (Tris-HCl 50 mM pH=8.5, ONPG 5 mg/ml β-mercapto-ethanol 7 μl/ml Triton×100 0.05%). After 4 hours of incubation at 37° C., the optical density of each well was measured.
The concentration of each of the inhibitors of the IT of the HIV-1 was adjusted to 50 mM in DMSO. The later dilutions were carried out on RPMI 1640. 2 μl of suitable dilutions of each of these inhibitors were added to 198 μl of a freshly unfrozen viral suspension. After 3 hours of incubation at ambient temperature, these suspensions were filtered on 0.02 μ VecraSpin tubes, then washed 3 times with 500 μl of RPMI 1640. The viral residuums were then adjusted to 200 μL with the culture medium (RPMI-10% CFS), then tested with regard to their infectivity on HT4LacZ cells.

[2] = Human immunodeficiency virus 1, 120 h, Table 2, HIV-1 LAI, CEM-SS cells, 5 days, read-out: IC50, anti-HIV-1 activity
[3] = Table 2, HIV-1 LAI, CEM-SS cells
[4] = Human immunodeficiency virus 1, 3 h, read-out: Activity of the isolated virions after treatment
[5] = Human immunodeficiency virus 1, 1 μM inhibitor, 3 h, 100 TCID50, compared with viral supernatant subjected to same treatments, mean of 1 to 4 experiments, read-out: Activity of the isolated virions after treatment
[6] = Human immunodeficiency virus 1, 10 μM inhibitor, 3 h, 100 TCID50, compared with viral supernatant subjected to same treatments, mean of 1 to 4 experiments, read-out: Activity of the isolated virions after treatment

Compound	IC50 (HIV-1 LAI; [2])	CC50 at 120 h [1]	SI (selectivity index) (HIV-1 LAI; [3])	other results
Cc1cn([C@H]2C[C@H](N=[N+]=[N-])[C@@H](CO)O2)c(=O)[nH]c1=O [AZT, reference compound]	0.003 µM	> 100 µM	> 33333	IC50 (HIV-1 LAI; Human immunodeficiency virus 1, CEM-SS, Table 4, HIV-1 (LA1)/CEMSS, read-out: IC50): 0.00084 µM; activity at 1 µM (isolated virion HIV-1LAI; [4]): 99%; activity at 10 µM (isolated virion HIV-1LAI; [4]): 99%; activity on the isolated virion (in words) (isolated virion HIV-1LAI): totally inactive
Nc1ccn([C@@H]2CS[C@H](CO)O2)c(=O)n1 [Compound 3TC]	–	–	–	activity at 1 µM (isolated virion HIV-1LAI; [5]): 100%; activity at 10 µM (isolated virion HIV-1LAI; [6]): 100%; activity on the isolated virion (in words) (isolated virion HIV-1LAI): totally inactive
Cc1cnc(O)c([N+](=O)[O-])c1Sc1ccccc1 [Compound 7d, 5-methyl-3-nitro-4-phenylthio-pyridin-2(1H)-one]	> 10 µM	> 10 µM	–	–
Cc1cc(O)nc(Sc2c(C)cnc(O)c2[N+](=O)[O-])n1 [Compound 9b, 5-methyl-3-nitro-4-(4'-hydroxy-6'-methylpyrimidin-2-yl)thiopyridin-2(1H)-one]	> 100 µM	> 100 µM	–	–
Cc1c[nH]c(=O)c([N+](=O)[O-])c1Sc1nc2ccccc2[nH]1 [Compound 9c, 5-methyl-3-nitro-4-(benzimidazol-2-yl)thiopyridin-2(1H)-one]	43.5 µM	54.5 µM	> 1	–
Cc1c[nH]c(=O)c([N+](=O)[O-])c1Sc1nccn1C [Compound 9g, 5-methyl-3-nitro-4-(N-methylimidazol-2-yl)thio-pyridin-2(1H)-one]	56 µM	68.5 µM	> 1	–
Cc1c[nH]c(=O)c([N+](=O)[O-])c1Sc1ccccn1 [Compound 9h, 5-methyl-3-nitro-4-(2-pyridyl) thio-pyridin-2(1H)-one]	18 µM	28.5 µM	> 1	–
CCCCCCC(=O)Nc1c(Sc2cc(C)cc(C)c2)c(C)c[nH]c1=O [Compound 11d, 3-heptanamido-5-methyl-4-(3', 5'-dimethylphenyl)thio-pyridin-2(1H)-one]	> 10 µM	> 10 µM	–	–
Cc1cc(C)cc(Sc2c(C)cnc(O)c2NC(=O)Cc2ccccc2)c1 [Compound 11e, 5-methyl-3-phenylacetamido-4-(3', 5'-dimethylphenyl)thio-pyridin-2(1H)-one]	> 10 µM	> 10 µM	–	–
Cc1ccnc2c1NC(=O)c1cccnc1N2C1CC1 [Nevirapine]	–	–	–	activity at 0.1 µM (isolated virion HIV-1LAI; Human immunodeficiency virus 1, 0.1 μM inhibitor, 3 h, 100 TCID50, compared with viral supernatant subjected to same treatments, mean of 1 to 4 experiments, read-out: Activity of the isolated virions after treatment): 86%; activity at 1 µM (isolated virion HIV-1LAI; [5]): 86%; activity at 10 µM (isolated virion HIV-1LAI; [6]): 111%; activity on the isolated virion (in words) (isolated virion HIV-1LAI): totally inactive
Cc1cn([C@H]2C=C[C@@H](CO)O2)c(=O)[nH]c1=O [d4T]	–	–	–	activity at 1 µM (isolated virion HIV-1LAI; [4]): 130%; activity at 10 µM (isolated virion HIV-1LAI; [4]): 127%; activity on the isolated virion (in words) (isolated virion HIV-1LAI): totally inactive
O=c1[nH]cnc2c1ncn2[C@H]1CC[C@@H](CO)O1 [ddl]	–	–	–	activity at 1 µM (isolated virion HIV-1LAI; [5]): 100%; activity at 10 µM (isolated virion HIV-1LAI; [6]): 100%; activity on the isolated virion (in words) (isolated virion HIV-1LAI): totally inactive

Continued, in another order:

IC50 (HIV-1 LAI; [2])	Compound	CC50 at 120 h [1]	SI (selectivity index) (HIV-1 LAI; [3])	other results
0.005 µM	CCOCc1c[nH]c(=O)c([N+](=O)[O-])c1Sc1cc(C)cc(C)c1 [Compound 7g, 5-ethoxymethyl-3-nitro-4-(3', 5'-dimethylphenyl)thio-pyridin-2(1H)-one]	> 10 µM	> 2000	–
0.02 µM	CCOCc1c[nH]c(=O)c(N)c1Sc1cc(C)cc(C)c1 [Compound 8g, 3-amino-5-ethoxymethyl-4-(3', 5'-dimethylphenyl)thio-pyridin-2(1H)-one]	> 10 µM	> 500	–
17.5 µM	Cc1cc(C)nc(Sc2c(C)c[nH]c(=O)c2[N+](=O)[O-])n1 [Compound 9a, 5-methyl-3-nitro-4-(4', 6'-dimethylpyrimidin-2-yl)thiopyridin-2(1H)-one]	19.5 µM	> 1	–
5.5 µM	Cc1c[nH]c(=O)c([N+](=O)[O-])c1Sc1nc2ccccc2o1 [Compound 9d, 5-methyl-3-nitro-4-(benzoxazol-2-yl)thiopyridin-2(1H)-one]	16 µM	> 2	–
14.5 µM	Cc1cnc(O)c([N+](=O)[O-])c1Sc1nc2ccccc2s1 [Compound 9e, 5-methyl-3-nitro-4-(benzothiazol-2-yl)thio-pyridin-2(1H)-one]	13.5 µM	–	–
17 µM	Cc1c[nH]c(=O)c([N+](=O)[O-])c1SC1=NCCS1 [Compound 9f, 5-methyl-3-nitro-4-(thiazolin-2-yl) thio-pyridin-2(1H)-one]	21.5 µM	> 1	–
8 µM	Cc1cnc(O)c(N)c1Sc1nc2ccccc2o1 [Compound 10, 3-amino-5-methyl-4-(benzoxazol-2-yl)thio-pyridin-2(1H)-one]	7.5 µM	–	–
6.6 µM	Cc1cc(C)cc(Sc2c(C)c[nH]c(=O)c2NC=O)c1 [Compound 11a, 3-formamido-5-methyl-4-(3', 5'-dimethylphenyl)thio-pyridin-2(1H)-one]	> 100 µM	> 15	–
7.5 µM	CCOC(=O)Nc1c(Sc2cc(C)cc(C)c2)c(C)c[nH]c1=O [Compound 11f, 5-methyl-3-N-ethoxycarbamoyl-4-(3', 5'-dimethylphenyl)thio-pyridin-2(1H)-one]	> 100 µM	> 13	–
